Measurements reported in patent US6699681B2, “Endothelin converting enzymes and the amyloid β peptide” (Mayo Foundation for Medical Education and Research, priority 2000, dated 2004).

Legend:
[1] = test system: Aβ concentration in plasma; test: Treatment of guinea pigs with phosphoramidon, plasma Aβ by sandwich ELISA; assay type: in vivo, guinea pig; settings: guinea pigs treated intravenously
Method: Animal experiments were conducted within the United States Department of Agriculture (USDA) and the National Institute of Health (NIH) guidelines for animal use and care. To prevent clotting and to facilitate the collection of plasma, each animal was given 100 USP units/kg heparin sodium salt (Sigma, St. Louis, Mo.) administered intraperitoneally (IP) prior to experimentation. Animals were anesthetized with a single IP injection of 0.9 mg/kg acepromazine maleate (Fermenta, Kansas City, Mo.) combined with 90 mg/kg Ketaset (Fort Dodge Laboratories, Fort Dodge, Iowa). […] During the entire operation, the animal's temperature was periodically monitored and anesthesia maintained by further intraperitoneal injections as necessary. […] Data was obtained from at least 2 animals, with the Aβ in each sample measured at least twice.
Human and guinea pig Aβ40 or Aβ42 was measured in plasma by sandwich ELISA as previously described (Suzuki et al., 1994, Science, 264:1336-1340) using the BAN-50/BA-27 or BAN-50/BC-05 antibody systems, respectively (Takeda; Japan). Hamster Aβ40- or Aβ42-derived from CHO cells was measured using the BNT-77/BA-27 or BNT-77/BC-05 antibody systems, respectively. Aβ concentration in samples was determined by comparison to synthetic Aβ40 or Aβ42 standards (Bachem, Switzerland). […]

[2] = target: T1, SolECE-1 (Homo sapiens, UniProt P42892); test: Inhibition of Aβ degradation by SolECE-1, sandwich ELISA; assay type: biochemical; settings: inhibitor pre-incubated 15 min; phosphoramidon 150 μM; 24 hrs at 37° C.
T1 construct: a recombinant soluble form of ECE was generated (SolECE-1); made in house
T1 sequence (P42892 90-770 limits assumed): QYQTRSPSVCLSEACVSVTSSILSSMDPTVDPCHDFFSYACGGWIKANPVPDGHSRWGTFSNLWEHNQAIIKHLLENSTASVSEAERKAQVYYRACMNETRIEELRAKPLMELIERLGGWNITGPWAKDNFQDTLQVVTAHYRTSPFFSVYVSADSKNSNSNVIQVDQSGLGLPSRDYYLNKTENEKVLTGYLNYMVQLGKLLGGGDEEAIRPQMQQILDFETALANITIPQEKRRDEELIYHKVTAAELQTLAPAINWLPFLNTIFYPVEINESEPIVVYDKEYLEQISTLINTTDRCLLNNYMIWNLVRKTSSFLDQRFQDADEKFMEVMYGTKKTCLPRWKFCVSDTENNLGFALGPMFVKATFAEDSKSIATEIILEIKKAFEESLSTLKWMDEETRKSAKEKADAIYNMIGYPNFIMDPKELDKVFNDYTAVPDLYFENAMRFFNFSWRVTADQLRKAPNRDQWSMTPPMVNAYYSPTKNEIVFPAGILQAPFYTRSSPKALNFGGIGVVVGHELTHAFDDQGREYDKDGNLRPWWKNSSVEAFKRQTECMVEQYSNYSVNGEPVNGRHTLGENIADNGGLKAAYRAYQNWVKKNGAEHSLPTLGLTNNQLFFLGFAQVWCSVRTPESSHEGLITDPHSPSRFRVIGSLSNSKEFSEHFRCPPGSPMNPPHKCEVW
Method: SolECE-1 (approximately 0.2 μM) was pre-incubated for 15 min at room temperature with the ECE inhibitors PD069185 (synthesized according to published methods (Ahn et al., 1998, Biochem. Biophys. Res. Comm., 243:184-190) by the Mayo Clinic Organic Chemistry Core Facility, Jacksonville, Fla.) or phosphoramidon (150 μM), or an equal volume of vehicle (DMSO or PBS, respectively) prior to incubation with synthetic Aβ40 or Aβ42 (0.01 μM) in 50 mM MES (pH 6.5) containing 0.01% C12E10, 1 mM PMSF, 100 μM leupeptin, and 20 μM pepstatin. As a control, Aβ was incubated with Ni-NTA purified proteins from non-transfected CHO cells, or in reaction buffer alone. Following incubation for 24 hrs at 37° C., the reactions were stopped by the addition of 5 mM EDTA. Aβ concentration was then analyzed using a highly specific sandwich ELISA that captures Aβ via binding of antibody BAN-50 to the N-terminus, and detects only full-length Aβ peptides ending at residue 40 (using antibody BA-27) or 42 (using antibody BC-05). Thus, Aβ that has been further hydrolyzed will not be detected using this assay.

CC(C)C[C@H](NP(=O)(O)O[C@@H]1O[C@@H](C)[C@H](O)[C@@H](O)[C@H]1O)C(=O)N[C@@H](Cc1c[nH]c2ccccc12)C(=O)O [phosphoramidon]
Aβ concentration in the plasma [1]: dose-dependent, rapid increase | block of the SolECE-1-induced reduction of Aβ40 and Aβ42 [2]: completely blocked
